Data as given in patent US11559579B2 (HealthPartners Research & Education, priority 2014, dated 2023).

How the values were obtained:
[1] = system: Moderate Controlled Cortical Impact Injury Model (TBI); assay: Beam walk motor function test after controlled cortical impact; format: in vivo, Sprague Dawley rats; details: day 7 post-injury vs day 1 baseline and vs saline (vehicle) rats on day 7; intranasal, first dose 4 hours post-injury, then once a day; FIG. 1
From the text: (§1) 2007 Mar. 15; 160(2):187-96. Onyszchuk, G., et al., J. Neurosci. Methods, 2007, 160(2): p.

[2] = system: Moderate Controlled Cortical Impact Injury Model (TBI); assay: Peg walk motor function test after controlled cortical impact; format: in vivo, Sprague Dawley rats; details: day 7 vs day 1 baseline and vs saline (vehicle) rats on day 7; intranasal, once a day; FIG. 2
From the text: as §1

[3] = system: Moderate Controlled Cortical Impact Injury Model (TBI); assay: Morris water maze probe trial after controlled cortical impact; format: in vivo, Sprague Dawley rats; details: days 11-14 post-injury
From the text: as §1

[4] = system: neurons in the hippocampus; assay: NeuN immunohistochemistry of hippocampus post-injury; format: in vivo, Sprague Dawley rats; details: after sacrifice on day 8 post-injury; vs saline rats; FIG. 8a/8b
From the text: as §1
FIG. 8a illustrates neuronal viability in the saline rat hippocampus.

M2 microglia (CD206) = assay: M2 microglia marker CD206 expression post-injury; format: in vivo, Sprague Dawley rats; details: sacrifice on day 8 post-injury; vs intranasal saline rats; FIG. 3
From the text: as §1
(§2) Microglia are the macrophages of the brain, with two dominant phenotypes: M1 and M2.
(§3) M1 microglia are classically activated pro-inflammatory cells. M1 microglia are useful in the initial healing process, but persistent activation results in neuronal cell death due to production of reactive oxygen species. M2 microglia are anti-inflammatory, pro-healing macrophages.

M1 microglia (CD86) = assay: M1 microglia marker CD86 expression post-injury; format: in vivo, Sprague Dawley rats; details: sacrifice on day 8 post-injury; vs saline rats; FIG. 4
From the text: as §1, §2, §3

[5] = intranasal insulin; normal adults and patients with Alzheimer's disease; cited from earlier work

## insulin
[1]
  time to cross the beam (beam walk): significant decrease in time
[2]
  peg walk motor function: positive trend towards improved motor function
[3]; insulin vs saline (vehicle) treated rats, FIG. 7
  search strategy (Morris water maze probe trial): saline (vehicle) treated rats utilized significantly less targeted search methods (looping) than insulin rats
[3]; vs saline (vehicle) treated rats, FIG. 6
  number of crosses of the target island region (Morris water maze probe trial): significant increase in the number of crosses of the target island region
[4]
  neuronal viability in the hippocampus (NeuN): improved neuronal viability in the hippocampus
M2 microglia (CD206)
  M2 microglia, expression of CD206: significant increase in M2 microglia
M1 microglia (CD86)
  M1 microglia markers, expression of CD86: no significant increase in expression of M1 microglia markers
[5]
  memory: improve memory
